The values that follow come from patent US9557338B2 (SIGNAL PHARMACEUTICALS, LLC, priority 2012, dated 2017).

What all share (type): cell-based
For one test, the system named is Phospho-GSK3β(S9). Briefly: Luminex multiplex assay, Phospho-GSK3β(S9). As to conditions: PC3 cell line; read-out: Luminex GSK-3β. The text has this:
(§1) Determination of Phospho-GSK3β(S9), Phospho-PRAS40(T246) and Phospho-4E-BP1(T46) and the Effect of Compound 1 or Rapamycin.
(§2) The multiplex Luminex assay format differs from conventional enzyme-linked immunosorbent assay (ELISA) in that the multiplex capture antibody is attached to a polystyrene bead whereas the ELISA capture antibody is attached to the microplate well. The use of the suspension bead-based technology enables the multiplexing capabilities of the Luminex assays. The xMAP® technology uses 5.6 micron polystyrene microspheres, which are internally dyed with red and infrared fluorophores of differing intensities. Each bead is given a unique number, or bead region, allowing differentiation of one bead from another. Beads covalently bound to different specific antibodies can be mixed in the same assay, utilizing a 96-well microplate format. At the completion of the sandwich immunoassay, beads can be read, using the Luminex 100™ or Luminex 200 detection system, in single-file by dual lasers for classification and quantification of each analyte. The Akt-Pathway Phospho 5-plex kit used was custom made and includes the ability to simultaneously measure p-GSK3β (S9), p-PRAS40(T246), and p-4E-BP1(T46).
(§3) Cells were plated at the required density. The cells were treated with either Compound 1 or rapamycin over a range of concentrations for 1 hour in 5% CO2 at 37° C. Compound 1 and rapamycin were used at the same concentrations as for the proliferation assay. As for the cell proliferation assay, a reference standard was included in the assay for PC3 cells and the coefficient of variation for assay of p-GSK3β(S9) was 37.8% (n=30), p-PRAS40(T246) was 27.8% (n=30) and for p4E-BP1(T46) was 13.5% (n=4). For three cell lines (HCT-116, MDA-MB-231 and HT29) in the assay for phosphorylation of GSK3β, PRAS40 and 4E-BP1, IGF-I stimulation (500 ng/mL, recombinant human IGF-I) for the last 10 min of incubation was used. The media was aspirated from the wells and the plate was placed on ice. Then 35 μL of Lysis Buffer was added to each well and incubated on ice for at least 30 minutes. During the incubation, the standard curve for each phosphoprotein was prepared. The standards provided were reconstituted and serial dilutions were prepared according to the manufacturer's instructions. At the end of the cell lysis step, […] of the lysate was transferred to a V-bottom plate and spun at 4° C. at 2000 rpm for 5 minutes. Both the 1× Luminex bead and 1× detector antibody solutions were prepared during this time. The 1× bead solution was vortexed and 25 μL was added into each well of a black round bottom plate. Then 50 μL of the 1× detector antibody was added to each well. Fifty microliters (50 μL) of the prepared standards were added to the designated wells. Then 25 μL of the assay diluent was added to each well designated for the compound-treated cell lysates. At the end of the spin, 25 μL of cell lysate was added to the corresponding wells of the black assay plate. The assay plate was covered with the white plate lid and incubated for 3 hours at room temperature on an orbital shaker.
(§4) Approximately 10-15 minutes prior to the end of the first incubation, the secondary antibody solution was prepared according to the vendor's protocol. Goat anti-rabbit R-phycoerythrin red fluorescent protein (RPE) supplied as a 10× concentrate was diluted to generate a 1× goat anti-rabbit RPE stock. The 96-well filter plate was pre-wet with 200 μL of 1× Working wash solution. At the end of the 3 hour incubation, a multichannel pipette was used to transfer the entire contents from each assay well into the wells of the filter plate. The liquid from the wells was removed by aspiration with the vacuum manifold. Then 200 μL of 1× Working wash solution was added into each well. The wash solution was aspirated using the vacuum manifold after 15-30 seconds. This wash step was repeated one time. The bottom of the plate was blotted on clean paper towels to remove residual liquid. […]

Another test concerns p70S6K. Briefly: Luminex multiplex assay, p70S6K phosphorylation in cell lysates. As to conditions: PC3 cell line; read-out: Luminex p70S6K.
Source text: as §2, §3, §4

The test system of another test is Phospho-PRAS40(T246). Briefly: Luminex multiplex assay, Phospho-PRAS40(T246). As to conditions: PC3 cell line; read-out: Luminex PRAS40.
Source text: as §1, §2, §3, §4

Some results are limits rather than exact numbers.

With `O=C1CNc2ncc(-c3cnc4[nH]ccc4c3)nc2N1CCC1CCOCC1` [C-61], the IC50 in the test with Phospho-GSK3β(S9) was 33 nM; with p70S6K, 3 nM; in the test with Phospho-PRAS40(T246), 21 nM.

For the compound `O=C1CNc2ncc(-c3ccc4[nH]ncc4c3)nc2N1CCC1CCOCC1` [C-62], the IC50 in the test with Phospho-GSK3β(S9) stood at 568 nM; in the test on p70S6K it was 33 nM; with Phospho-PRAS40(T246), 349 nM.

Take `NC(=O)c1ccc(-c2cnc3c(n2)N(CCC2CCOCC2)C(=O)CN3)cc1` [C-63]: the IC50 in the test with Phospho-GSK3β(S9) came out at 927 nM; with p70S6K, 216 nM; in the test with Phospho-PRAS40(T246) it was 842 nM.

As for `CC(C)(O)c1ccc(-c2cnc3c(n2)N([C@H]2CC[C@@H](O)CC2)C(=O)CN3)cn1` [C-64], the IC50 with Phospho-GSK3β(S9) came out at 299 nM; with p70S6K it was 61 nM; in the test with Phospho-PRAS40(T246), 349 nM.

For `CC(C)(O)c1ccc(-c2cnc3c(n2)N([C@H]2CC[C@H](O)CC2)C(=O)CN3)cn1` [C-65], the results for the IC50 with Phospho-GSK3β(S9), with p70S6K and in the test with Phospho-PRAS40(T246) were 266 nM, 40 nM and 207 nM, respectively.

Take `O=C1CNc2ncc(-c3cnc4nc[nH]c4c3)nc2N1CCC1CCOCC1` [C-67]: the IC50 with Phospho-GSK3β(S9), with p70S6K and in the test on Phospho-PRAS40(T246) was greater than 1500 nM throughout.

On to `O=C1CN(CCC2CCOCC2)c2nc(-c3ccc4cn[nH]c4c3)cnc2N1` [C-68], for which the IC50 was greater than 1500 nM with Phospho-GSK3β(S9), 752 nM with p70S6K and greater than 1500 nM with Phospho-PRAS40(T246).

As to `CC(C)(O)c1ccc(-c2cnc3c(n2)N(CCN2CCOCC2)C(=O)CN3)cn1` [C-70], the IC50 is 700 nM in the test with Phospho-GSK3β(S9), 540 nM in the test on p70S6K and greater than 1500 nM in the test with Phospho-PRAS40(T246).

Take `O=C1CN(CCC2CCOCC2)c2nc(-c3cnc4nc[nH]c4c3)cnc2N1` [C-74]: the IC50 in the test on Phospho-GSK3β(S9), with p70S6K and in the test with Phospho-PRAS40(T246) was greater than 1500 nM each time.

For `O=C1CNc2ncc(-c3ccc4cn[nH]c4c3)nc2N1CCC1CCOCC1` [C-75], the IC50 with Phospho-GSK3β(S9) was greater than 1500 nM; in the test on p70S6K, 173 nM; in the test on Phospho-PRAS40(T246), greater than 1500 nM.

Take `O=c1[nH]c2ncc(-c3ccc(C4(O)COC4)nc3)nc2n1CCC1CCOCC1` [C-76]: the IC50 in the test on Phospho-GSK3β(S9), in the test on p70S6K and with Phospho-PRAS40(T246) was greater than 1500 nM in each case.

For `O=c1[nH]c2ncc(-c3ccc(C4(O)COC4)cn3)nc2n1CCC1CCOCC1` [C-77], the IC50 in the test with Phospho-GSK3β(S9), in the test with p70S6K and in the test on Phospho-PRAS40(T246) was greater than 1500 nM in each case.

For `COC1CCC(N2C(=O)CNc3ncc(-c4ccc(C(C)(C)O)nc4)nc32)C1` (stereo not drawn) [C-78], the figures for the IC50 with Phospho-GSK3β(S9), in the test with p70S6K and with Phospho-PRAS40(T246) were greater than 1500 nM, 1290 nM and greater than 1500 nM, respectively.

In the case of `CO[C@H]1CC[C@H](N2C(=O)CNc3ncc(-c4ccc(C(C)(C)O)nc4)nc32)C1` [C-79], the IC50 is greater than 1500 nM in the test on Phospho-GSK3β(S9), 981 nM in the test on p70S6K and greater than 1500 nM in the test on Phospho-PRAS40(T246).

Regarding `CO[C@@H]1CC[C@H](N2C(=O)CNc3ncc(-c4ccc(C(C)(C)O)nc4)nc32)C1` [C-80], the IC50 with Phospho-GSK3β(S9) stood at 841 nM; in the test with p70S6K it was 133 nM; with Phospho-PRAS40(T246), 724 nM.

Regarding `COC1CCC(N2C(=O)CNc3ncc(-c4ccc(C(C)(C)O)nc4)nc32)C1` (stereo not drawn) [C-81], the IC50 with Phospho-GSK3β(S9) was greater than 1500 nM; in the test on p70S6K, 134 nM; in the test on Phospho-PRAS40(T246) it was 847 nM.

As for `COC1CCC(N2CC(=O)Nc3ncc(-c4cnc(C(N)=O)cc4C)nc32)CC1` (stereo not drawn) [C-82], the IC50 is greater than 1500 nM in the test with Phospho-GSK3β(S9), 467 nM in the test on p70S6K and greater than 1500 nM with Phospho-PRAS40(T246).

`N#Cc1cccc(-c2cnc3c(n2)N(CCC2CCOCC2)CC(=O)N3)c1` [C-83]: the IC50 in the test on Phospho-GSK3β(S9), with p70S6K and with Phospho-PRAS40(T246) was greater than 1500 nM each time.

On to `NC(=O)c1cccc(-c2cnc3c(n2)N(CCC2CCOCC2)CC(=O)N3)c1` [C-84], for which the IC50 in the test on Phospho-GSK3β(S9), in the test on p70S6K and in the test on Phospho-PRAS40(T246) was greater than 1500 nM throughout.

For `CC(C)(O)c1ccc(-c2cnc3c(n2)N(Cc2cccc(C#N)c2)C(=O)CN3)cn1` [C-85], the IC50 was found to be 30 nM with Phospho-GSK3β(S9), 27 nM with p70S6K and 139 nM with Phospho-PRAS40(T246).
